From US20170051306A1, “NOVEL METHOD FOR LABELLING CANCERIZATION-CAUSING CELL IN STEM CELLS, AND THERAPY METHOD” (KAGOSHIMA UNIVERSITY, priority 2014, published 2017)

Key:
KhES1 cells [1] = assay: In vitro cytotoxic effects of suicide genes plus drug, viable cell count; assay type: cell-based, human; details: high-concentration AZT
Experimental: The total amount of the resulting product was administered. The medium was renewed 24 hours later. […] Then, 10 μL of the cells were collected.

MKN45 cells [2] = assay: as above; details: high concentration AZT
Experimental: In order to evaluate cytotoxicity of suicide genes in cells of each type, HSV-tk, human-tmpk, and iCaspase9 were introduced into cells, and cell killing effects were examined and compared with the addition of drugs. […] For human-tmpk and iCasp9, plasmids were introduced into cells. Cells of each type described below were seeded on a 24-well plate at the corresponding number of cells. • KhES1 cells: 4×10^4 cells/well • MKN45 cells: 2×10^4 cells/well (only tmpk iCasp9) • BJ cells: 1×10^4 cells/well
On the following day, infection with Ad.CAG-HSV-tk at MOI=10 was performed, the medium was renewed 24 hours later, and then 10 μL of GCV (10 μg/mL) was administered for 4 days. For human-tmpk and iCasp9, 0.5 μg of each plasmid was added to 25 μL of OPTI-MEM, and 2 μL of FUGENE HD (QIAGEN) was added, followed by vortexing and stationary placement of 15 minutes. The total amount of the resulting product was administered. The medium was renewed 24 hours later. Then, AZT was administered at 0, 30, 100, and 300 μM to each well of human-tmpk-transfected cells for 3 days. For iCasp3, Dimerizer was administered at 0, 0.03, 0.1, and 0.3 μM to each well for 3 days. After drug administration, cytotoxic effects were determined by counting the number of viable cells. […] Trypan blue (10 μL) was added to each collected cell suspension and the number of viable cells was counted.

MKN45 cells [3] = assay: AZT sensitivity of sorted cells constitutively expressing human-tmpk versus non-infected cells (NC); assay type: cell-based; details: AZT at high concentrations
Experimental: (§1) In addition, regarding human-tmpk, after infection with a lentiviral vector, a similar experiment was conducted using sorted cells permanently-expressing the gene based on specificity to CD19.
(§2) Starting from the following day, AZT was administered at 0, 0.1, 1, 10, 100, and 1000 μM to each well for 3 days, and the number of viable cells was counted by the method described above.

Jurkat cells = assay: as above; assay type: cell-based; details: AZT at high concentrations
Experimental: as §1, §2

[4] = test system: mouse ES/iPS cells or human ES/iPS cells; details: cells subcutaneously transplanted; Non-Patent Documents 7 and 8; cited from earlier work
KhES1 cells [5] = assay: In vitro toxicity of GCV on undifferentiated lentivirus-infected cells
Experimental: Cells were infected with the vectors. The infected cells (GFP-positive cells) were sorted using FACS ARIA II (BD).
In the case of KhES 1, KhES 1 cells were cultured overnight in medium containing 10 μM Y27632, treated with CTK, and dispersed into separate cells. The number of cells was counted, a necessary amount of cells were centrifuged (1000 rpm, 5 minutes), and resuspended in 10 μM Y27632-containing PBS. Alexa Fluor 488 anti-Human SSEA4 (BIOLEGEND) serving as an antibody for labeling undifferentiated cells (5 μL) was added to 100 μL of a cell suspension (1×10^6 cells), cells were suspended on ice for every 10 minutes during stationary placement for 30 minutes for labeling of the cells. The cells were washed once with 10 μM Y27632-containing PBS, suspended in 10 μM Y27632-containing ES medium, and then GFP-positive cells labeled with the antibody were evaluated as undifferentiated lentivirus-infected KhES 1 cells using a flow cytometer.
Cytotoxic effects after GCV administration were analyzed using the above sorted KhES1 cells and D3 cells. KhES1 cells were seeded on a 96-well plate at 1×10^5 cells per well. […] Cytotoxic effects after 4-day administration were determined by WST-8 assay, which is modified MTT assay. […] Absorbance of this formazan at 450 nm was directly measured, thereby determining the number of viable cells (E).

[6] = test system: KhES1 cells after differentiation induction treatment; assay: Safety upon in vitro GCV administration to differentiated cells
Experimental: Analysis was conducted using the above sorted KhES1 cells to confirm safety upon GCV administration after differentiation induction. For differentiation induction, cells were seeded on a 96-well low adhesive plate containing ES medium (excluding LIF) at 3×10^3 cells per well. Culture was performed for one week so that an embryonic body was formed. Thereafter, subculture on a gelatin-coated dish was continued for 28 days or more so that sufficiently differentiated cells were produced. Cells subjected to differentiation induction were re-seeded on a 96-well plate at 1×10^5 cells per well. Starting from the following day, GCV was administered at 0, 0.01, 0.1, 1, 10, and 100 μg/mL to the groups of survivin-Venus-2A-HSV-tk (A), CAG-Venus-2A-HSV-tk (B), survivin-Venus-2A-puromycin lacking HSV-tk (C), and non-infected cells (NC)(D) for 4 days.

[7] = tmpk with minimum gene modification; cited from earlier work

Cc1cn([C@H]2C[C@H](N=[N+]=[N-])[C@@H](CO)O2)c(=O)[nH]c1=O [AZT, 3′-azido-3′-deoxythymidine]
cell damage in cells not transfected with human-tmpk (KhES1 cells [1]): cell damage was observed even in cells not transfected with human-tmpk | cell damage in cells not transfected with human-tmpk (MKN45 cells [2]): Cell damage was observed even in cells not transfected with human-tmpk | cell damage in cells not infected with human-tmpk (MKN45 cells [3]): cell damage was induced at high concentrations even in cells not infected with human-tmpk | cell damage in cells not transfected with human-tmpk (Jurkat cells): cell damage was observed even in cells not transfected with human-tmpk

Nc1nc(O)c2ncn(COC(CO)CO)c2n1 [GCV, ganciclovir]
tumor reduction by GCV administration [4]: tumors can be reduced by GCV administration | cytotoxic effects in non-infected cells (NC) (KhES1 cells [5]; GCV 1 μg/mL): cytotoxic effects were not observed | HSV-tk-non-specific cytotoxicity (KhES1 cells [5]; GCV concentration of 10 μg/mL or more): HSV-tk-non-specific cytotoxicity was observed | cytotoxicity in non-infected cells (NC) after differentiation ([6]; GCV 0 to 100 μg/mL for 4 days): No cytotoxicity was observed | non-specific cell killing effects in differentiated cells ([6]; GCV at 10 μg/mL or more, compared with undifferentiated cells): Non-specific cell killing effects were not observed | specificity of GCV toxicity ([6]; undifferentiated versus differentiated KhES1 cells, with or without HSV-tk): exhibits toxicity only in undifferentiated cells under the presence of HSV-tk

B1: tmpk (F105Y): genetically improved human thymidylate kinase used as suicide gene (protein, UniProt P23919 2-212, looked up, variant F105Y)
Thymidylate kinase: AARRGALIVLEGVDRAGKSTQSRKLVEALCAAGHRAELLRFPERSTEIGKLLSSYLQKKSDVEDHSVHLLFSANRWEQVPLIKEKLSQGVTLVVDRYAFSGVAYTGAKENFSLDWCKQPDVGLPKPDLVLFLQLQLADAAKRGAFGHERYENGAFQERALRCFHQLMKDTTLNWKMVDASKSIEAVHEDIRVLSEDAIRTATEKPLGELWK
increased action on AZT-MP [7]: 200 fold
